Data on three compounds can be found in ChEMBL document CHEMBL5303573, “Mapping human microbiome drug metabolism by gut bacteria and their genes” (Nature, 2019).

A short description of data set [1]: The drug is tested on Enterococcus faecalis strain: V583 for biotransformation. The drug concentrations were measured before and after a 12-h incubation by liquid-chromatography-coupled mass spectrometry (LC–MS). The following applies: 2 µM.
A short description of data set [2]: The drug is tested on Bacteroides finegoldii strain: DSM17565 for biotransformation. The drug concentrations were measured before and after a 12-h incubation by liquid-chromatography-coupled mass spectrometry (LC–MS). The following applies: 2 µM.
For data set [3] the following is noted: parabacteroides johnsonii, 12 h, 2 µM.
Description: The drug is tested on Parabacteroides johnsonii strain: DSM18315 for biotransformation. The drug concentrations were measured before and after a 12-h incubation by liquid-chromatography-coupled mass spectrometry (LC–MS)
The conditions of data set [4]: parabacteroides distasonis, 12 h, 2 µM.
Description: The drug is tested on Parabacteroides distasonis strain: ATCC8503 for biotransformation. The drug concentrations were measured before and after a 12-h incubation by liquid-chromatography-coupled mass spectrometry (LC–MS)
A short description of data set [5]: The drug is tested on Alistipes indistinctus strain: DSM22520 for biotransformation. The drug concentrations were measured before and after a 12-h incubation by liquid-chromatography-coupled mass spectrometry (LC–MS). The settings on record: 2 µM.
Data set [6] in a line: The drug is tested on Escherichia coli strain: BW25113 for biotransformation. The drug concentrations were measured before and after a 12-h incubation by liquid-chromatography-coupled mass spectrometry (LC–MS). The settings on record: 2 µM.
Data set [7] is described as follows: The drug is tested on Bacteroides cellulosilyticus strain: DSM14838 for biotransformation. The drug concentrations were measured before and after a 12-h incubation by liquid-chromatography-coupled mass spectrometry (LC–MS). The following applies: 2 µM.
A short description of data set [8]: The drug is tested on Odoribacter splanchnicus strain: fecal isolate for biotransformation. The drug concentrations were measured before and after a 12-h incubation by liquid-chromatography-coupled mass spectrometry (LC–MS). The following applies: 2 µM.
The nature of data set [9]: The drug is tested on Eubacterium rectale strain: ATCC33656 for biotransformation. The drug concentrations were measured before and after a 12-h incubation by liquid-chromatography-coupled mass spectrometry (LC–MS). The following applies: agathobacter rectalis, 2 µM.
The nature of data set [10]: The drug is tested on Bacteroides uniformis strain: ATCC8492 for biotransformation. The drug concentrations were measured before and after a 12-h incubation by liquid-chromatography-coupled mass spectrometry (LC–MS). The following applies: 2 µM.
Data set [11] in a line: The drug is tested on Clostridium scindens strain: ATCC35704 for biotransformation. The drug concentrations were measured before and after a 12-h incubation by liquid-chromatography-coupled mass spectrometry (LC–MS). The settings on record: 2 µM.
The conditions of data set [12]: bacteroides eggerthii, 12 h, 2 µM.
Description: The drug is tested on Bacteroides eggerthii strain: DSM20697 for biotransformation. The drug concentrations were measured before and after a 12-h incubation by liquid-chromatography-coupled mass spectrometry (LC–MS)
For data set [13] the following is noted: segatella copri, 12 h, 2 µM.
Description: The drug is tested on Prevotella copri strain: DSM18205 for biotransformation. The drug concentrations were measured before and after a 12-h incubation by liquid-chromatography-coupled mass spectrometry (LC–MS)
Data set [14] is described as follows: The drug is tested on Collinsella aerofaciens strain: ATCC25986 for biotransformation. The drug concentrations were measured before and after a 12-h incubation by liquid-chromatography-coupled mass spectrometry (LC–MS). The settings on record: 2 µM.
A short description of data set [15]: The drug is tested on Bacteroides caccae strain: ATCC43185 for biotransformation. The drug concentrations were measured before and after a 12-h incubation by liquid-chromatography-coupled mass spectrometry (LC–MS). The settings on record: 2 µM.
A short description of data set [16]: The drug is tested on Clostridium symbiosum strain: ATCC14940 for biotransformation. The drug concentrations were measured before and after a 12-h incubation by liquid-chromatography-coupled mass spectrometry (LC–MS). The settings on record: 2 µM.
For data set [17] the following is noted: bacteroides thetaiotaomicron, 12 h, 2 µM.
Description: The drug is tested on Bacteroides thetaiotaomicron strain: 7330 for biotransformation. The drug concentrations were measured before and after a 12-h incubation by liquid-chromatography-coupled mass spectrometry (LC–MS)
Data set [18] in a line: The drug is tested on Clostridium sp. strain: fecal isolate for biotransformation. The drug concentrations were measured before and after a 12-h incubation by liquid-chromatography-coupled mass spectrometry (LC–MS). The settings on record: 2 µM.
A short description of data set [19]: The drug is tested on Bifidobacterium ruminantium strain: fecal isolate for biotransformation. The drug concentrations were measured before and after a 12-h incubation by liquid-chromatography-coupled mass spectrometry (LC–MS). The settings on record: 2 µM.

As for `CC(C)c1c(CN(C)C(C)Cc2ccccc2)n(C)n(-c2ccccc2)c1=O` (stereo not given) [FAMPROFAZONE], the “Bacterial Biotransformation” value is given as “Compound NOT metabolized” in data set [1]; “Compound metabolized” in [2]; “Compound metabolized” in data set [3]; “Compound metabolized” in [4]; “Compound NOT metabolized” in data set [5]; “Compound NOT metabolized” in data set [6]. For the same compound, the “Bacterial Biotransformation” value in data set [7] is “Compound metabolized”; in data set [8] it was “Compound metabolized”; in data set [9], “Compound NOT metabolized”; in [10], “Compound metabolized”; in data set [11], “Compound NOT metabolized”; in [12] it was “Compound metabolized”. The “Bacterial Biotransformation” value is “Compound metabolized” in data set [13]; “Compound metabolized” in data set [14]; “Compound NOT metabolized” in data set [15]; “Compound NOT metabolized” in [16]; “Compound metabolized” in data set [17].
As to `CC(C)(C(=O)O)c1ccc(C(O)CCCN2CCC(C(O)(c3ccccc3)c3ccccc3)CC2)cc1` (stereo not given) [FEXOFENADINE], the “Bacterial Biotransformation” value in [1], in data set [2], in [3], in data set [5], in [7] and in data set [8] was “Compound NOT metabolized” throughout. Besides, the “Bacterial Biotransformation” value in data set [9], in data set [18], in data set [10], in data set [19], in data set [11] and in data set [12] was “Compound NOT metabolized” throughout. The “Bacterial Biotransformation” value in data set [13], in data set [14], in data set [15], in data set [16] and in data set [17] was “Compound NOT metabolized” each time.
For the compound `Nc1nc(N)nc(-c2cc(Cl)ccc2Cl)n1.O=C(O)/C=C\C(=O)O` [IRSOGLADINE MALEATE], the “Bacterial Biotransformation” value in data set [1] is listed as “Compound NOT metabolized”; in data set [2] it was “Compound NOT metabolized”; in data set [3], “Compound metabolized”; in [5] it was “Compound NOT metabolized”; in data set [7] it was “Compound NOT metabolized”; in data set [8], “Compound NOT metabolized”. Also, the “Bacterial Biotransformation” value is recorded as “Compound NOT metabolized” in [18]; “Compound NOT metabolized” in data set [10]; “Compound metabolized” in data set [19]; “Compound NOT metabolized” in data set [11]; “Compound NOT metabolized” in [12]; “Compound NOT metabolized” in [13]. Besides, the “Bacterial Biotransformation” value in data set [14], in [15], in [16] and in data set [17] was “Compound NOT metabolized” each time.
